The assay deals with primary rat mixed cortical cells. Description: In vitro myelination assay (MBP positive myelin strands, fold myelin pixels above background). The settings on record: Rattus norvegicus; for fold induction at 1 µM: 1.0 μM compound; for fold induction at 10 µM: 10.0 μM compound. It counts as cell-based. The procedure, abridged:
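P1 rat mixed cortical cultures (neurons, OPCs, oligodendrocytes, astrocytes, microglia) grown 14 days at 37 °C with compound, half-medium refreshed with compound on days 6 and 10. Fixed cells stained for MBP; MBP-positive myelin strand pixels per well quantified by automated imaging, reported as fold over no-compound baseline at 1.0 and 10.0 μM.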

Setting [1] is: read-out: Fold myelin pixels above background relative to baseline of no added compound.
The mark [2] stands for this setting: relative to baseline of no added compound, read-out: Fold myelin pixels above background.
Where [3] appears, read: relative to baseline of no added compound, read-out: Fold myelin pixels above background, 1.0 μM.
[4] abbreviates: relative to baseline of no added compound, read-out: Fold myelin pixels above background, 10.0 μM.

Where two headings read alike, the source gives them in different places.

With `Cc1cc(Nc2ncn(-c3cc(F)cc(F)c3)n2)cc(N2CC(N3CCN(C)CC3)C2)c1` [Compound 975, 1-(3,5-difluorophenyl)-N-[3-methyl-5-[3-(4-methylpiperazin-1-yl)azetidin-1-yl]phenyl]-1,2,4-triazol-3-amine], under setting [1], the fold induction at 1 µM was 1 to 10 and the fold induction at 10 µM is ≤ 1.

For the compound `CCc1cc(Nc2ncn(-c3cnccn3)n2)cc(N2CCN(C3(C)COC3)CC2)c1` [Compound 489, N-[3-ethyl-5-[4-(3-methyloxetan-3-yl)piperazin-1-yl]phenyl]-1-pyrazin-2-yl-1,2,4-triazol-3-amine], under setting [2], the fold induction at 1 µM was in the range of 10 to 100 and the fold induction at 10 µM was in the range of 10 to 100.

As for `CCc1cc(Nc2ncn(-c3cncnc3)n2)cc(N2CCN(C3COC3)CC2)c1` [Compound 549, N-[3-ethyl-5-[4-(oxetan-3-yl)piperazin-1-yl]phenyl]-1-pyrimidin-5-yl-1,2,4-triazol-3-amine], under setting [2], the fold induction at 1 µM lay within 1 to 10 and the fold induction at 10 µM lay in the range of 10 to 100.

With `Cc1cc(Nc2ncn(-c3ccc(C#N)cc3)n2)cc(N2CCN(C3COC3)CC2)c1` [Compound 687, 4-[3-[3-methyl-5-[4-(oxetan-3-yl)piperazin-1-yl]anilino]-1,2,4-triazol-1-yl]benzonitrile], under setting [2], the fold induction at 1 µM lay within 1 to 10 and the fold induction at 10 µM lay in the range of 1 to 10.

In the case of `Cc1cc(Nc2ncn(-c3cc(F)cc(F)c3)n2)nc(N2CC3CCOC3C2)c1` (centres unmarked) [Compound 843, 6-(2,3,3a,4,6,6a-hexahydrofuro[2,3-c]pyrrol-5-yl)-N-[1-(3,5-difluorophenyl)-1,2,4-triazol-3-yl]-4-methyl-pyridin-2-amine], under setting [1], the fold induction at 1 µM was 1 to 10 and the fold induction at 10 µM was 1 to 10.

As to `Cc1cc(Nc2ncn(-c3cc(F)cc(F)c3)n2)cc(N2CCC(N3CCCC3=O)CC2)c1` [Compound 161, 1-[1-[3-[[1-(3,5-difluorophenyl)-1,2,4-triazol-3-yl]amino]-5-methyl-phenyl]-4-piperidyl]pyrrolidin-2-one], the fold induction at 1 µM under setting [3] was in the range of 10 to 100. Besides, the fold induction at 10 µM under setting [4] was 10 to 100.

Regarding `Fc1ccc(-n2cnc(Nc3cc(C(F)F)cc(N4CCN(C5COC5)CC4)n3)n2)cc1Cl` [Compound 859, N-[1-(3-chloro-4-fluoro-phenyl)-1,2,4-triazol-3-yl]-4-(difluoromethyl)-6-[4-(oxetan-3-yl)piperazin-1-yl]pyridin-2-amine], under setting [1], the fold induction at 1 µM is 1 to 10 and the fold induction at 10 µM fell in the range of 1 to 10.

For the compound `Cc1cc(N2CCOCC2)cc(Nc2ncn(-c3ccccn3)n2)c1F` [Compound 307, N-(2-fluoro-3-methyl-5-morpholino-phenyl)-1-(2-pyridyl)-1,2,4-triazol-3-amine], the fold induction at 1 µM under setting [3] was 1 to 10. Further, the fold induction at 10 µM under setting [4] lay in the range of 10 to 100.

For `Cc1cc(Nc2ncn(-c3cccc(C(F)(F)F)c3)n2)cc(N2CCN(C3COC3)CC2)c1` [Compound 287, N-[3-methyl-5-[4-(oxetan-3-yl)piperazin-1-yl]phenyl]-1-[3-(trifluoromethyl)phenyl]-1,2,4-triazol-3-amine], the fold induction at 1 µM under setting [3] lay within 100 to 1000. Further, under setting [4], the fold induction at 10 µM is 100 to 1000.

As for `Cc1cc(Nc2ncn(-c3ccc(F)c(Cl)c3)n2)cc(N2CCN(C3COC3)CC2)c1` [Compound 597, 1-(3-chloro-4-fluoro-phenyl)-N-[3-methyl-5-[4-(oxetan-3-yl)piperazin-1-yl]phenyl]-1,2,4-triazol-3-amine], under setting [2], the fold induction at 1 µM fell in the range of 1 to 10 and the fold induction at 10 µM is ≤ 1.

As to `Cc1cc(Nc2ncn(-c3ccccc3)n2)cc(N2CCCC2)c1` [Compound 110, N-(3-methyl-5-pyrrolidin-1-yl-phenyl)-1-phenyl-1,2,4-triazol-3-amine], the fold induction at 1 µM under setting [3] lay in the range of 100 to 1000. For the same compound, the fold induction at 10 µM under setting [4] is 1 to 10.

For the compound `Cc1cc(Nc2ncn(-c3ccccc3)n2)cc(N2CCN(C3CC3)C(=O)C2)c1` [Compound 214, l-cyclopropyl-4-[3-methyl-5-[(1-phenyl-1,2,4-triazol-3-yl)amino]phenyl]piperazin-2-one], the fold induction at 1 µM under setting [3] fell in the range of 10 to 100. The fold induction at 10 µM under setting [4] lay in the range of 1000 to 10000.

For `Cc1cc(Nc2ncn(-c3cccc(F)c3)n2)c(F)c(OC2CCOC2)c1` (centres unmarked) [Compound 913, N-(2-fluoro-5-methyl-3-tetrahydrofuran-3-yloxy-phenyl)-1-(3-fluorophenyl)-1,2,4-triazol-3-amine], under setting [1], the fold induction at 1 µM was 10 to 100 and the fold induction at 10 µM fell in the range of 10 to 100.

In the case of `Fc1cc(F)cc(-n2cnc(Nc3cc(N4CC(N5CCOCC5)C4)cc(F)n3)n2)c1` [Compound 612, N-[1-(3,5-difluorophenyl)-1,2,4-triazol-3-yl]-6-fluoro-4-(3-morpholinoazetidin-1-yl)pyridin-2-amine], under setting [2], the fold induction at 1 µM was ≤ 1 and the fold induction at 10 µM is 10 to 100.

Regarding `Cc1cc(Nc2ncn(-c3cc(F)cc(F)c3)n2)cc(OC2CCOC2)c1` (centres unmarked) [Compound 703, 1-(3,5-difluorophenyl)-N-(3-methyl-5-tetrahydrofuran-3-yloxy-phenyl)-1,2,4-triazol-3-amine], under setting [2], the fold induction at 1 µM fell in the range of 10 to 100 and the fold induction at 10 µM fell in the range of 1 to 10.

As to `Fc1ccc(-n2cnc(Nc3cc(C4CC4)nc(N4CC[C@@H](F)C4)c3)n2)cc1F` [Compound 498, 2-cyclopropyl-N-[1-(3,4-difluorophenyl)-1,2,4-triazol-3-yl]-6-[(3R)-3-fluoropyrrolidin-1-yl]pyridin-4-amine], under setting [2], the fold induction at 1 µM fell in the range of 100 to 1000 and the fold induction at 10 µM lay within 100 to 1000.

In the case of `N#Cc1cc(Nc2ncn(-c3cc(F)cc(F)c3)n2)nc(N2CCN(C3COC3)CC2)c1` [Compound 853, 2-[[1-(3,5-difluorophenyl)-1,2,4-triazol-3-yl]amino]-6-[4-(oxetan-3-yl)piperazin-1-yl]pyridine-4-carbonitrile], under setting [1], the fold induction at 1 µM was in the range of 1 to 10 and the fold induction at 10 µM is 10 to 100.

In the case of `Cc1cc(Nc2ncn(-c3cc(F)cc(F)c3)n2)nc(N2CC(C(C)(C)O)C2)c1` [Compound 572, 2-[1-[6-[[1-(3,5-difluorophenyl)-1,2,4-triazol-3-yl]amino]-4-methyl-2-pyridyl]azetidin-3-yl]propan-2-ol], under setting [2], the fold induction at 1 µM is ≤ 1 and the fold induction at 10 µM fell in the range of 1 to 10.

As for `Cc1cc(Nc2ncn(-c3ccccc3)n2)cc(C2=CCN(C3COC3)C2)c1` [Compound 160, N-[3-methyl-5-[1-(oxetan-3-yl)-2,5-dihydropyrrol-3-yl]phenyl]-1-phenyl-1,2,4-triazol-3-amine], under setting [3], the fold induction at 1 µM is 1000 to 10000. Moreover, under setting [4], the fold induction at 10 µM is ≤ 1.

Consider `Cc1cc(Nc2ncn(-c3cc(F)cc(F)c3)n2)cc(N2CCN(C(C)(C)C(=O)O)CC2)c1` [Compound 509, 2-[4-[3-[[1-(3,5-difluorophenyl)-1,2,4-triazol-3-yl]amino]-5-methyl-phenyl]piperazin-1-yl]-2-methyl-propanoic acid], for which, under setting [2], the fold induction at 1 µM is 100 to 1000 and the fold induction at 10 µM was 100 to 1000.

With `c1ccc(-n2cnc(Nc3cc(C4CC4)cc(N4CCOCC4)c3)n2)cc1` [Compound 305, N-(3-cyclopropyl-5-morpholino-phenyl)-1-phenyl-1,2,4-triazol-3-amine], the fold induction at 1 µM under setting [3] lay within 100 to 1000. Under setting [4], the fold induction at 10 µM is ≤ 1.

`Cc1cc(Nc2ncn(-c3ccccc3F)n2)cc(N2CCN(C3COC3)CC2)c1` [Compound 223, 1-(2-fluorophenyl)-N-[3-methyl-5-[4-(oxetan-3-yl)piperazin-1-yl]phenyl]-1,2,4-triazol-3-amine]: the fold induction at 1 µM under setting [3] fell in the range of 10 to 100. Besides, the fold induction at 10 µM under setting [4] is 10 to 100.

`Cc1cc(Nc2ncn(-c3ccccc3)n2)cc(N2C[C@@H]3C[C@H]2CN3C)c1` [Compound 479, N-[3-methyl-5-[(1S,4S)-5-methyl-2,5-diazabicyclo[2.2.1]heptan-2-yl]phenyl]-1-phenyl-1,2,4-triazol-3-amine]: under setting [2], the fold induction at 1 µM lay within 100 to 1000 and the fold induction at 10 µM is ≤ 1.

On to `OC1(c2cc(F)cc(Nc3ncn(-c4cc(F)cc(F)c4)n3)c2)COC1` [Compound 775, 3-[3-[[1-(3,5-difluorophenyl)-1,2,4-triazol-3-yl]amino]-5-fluoro-phenyl]oxetan-3-ol], for which, under setting [2], the fold induction at 1 µM was in the range of 1 to 10 and the fold induction at 10 µM is 10 to 100.

For `N#Cc1cc(Nc2ncn(-c3cccc(F)c3)n2)cc(N2CCOCC2)c1` [Compound 737, 3-[[1-(3-fluorophenyl)-1,2,4-triazol-3-yl]amino]-5-morpholino-benzonitrile], under setting [2], the fold induction at 1 µM fell in the range of 10 to 100 and the fold induction at 10 µM is 10 to 100.

With `CCc1cc(Nc2ncn(-c3cccc(F)c3)n2)cc(N2CCN(C3COC3)CC2)c1` [Compound 468, N-[3-ethyl-5-[4-(oxetan-3-yl)piperazin-1-yl]phenyl]-1-(3-fluorophenyl)-1,2,4-triazol-3-amine], under setting [2], the fold induction at 1 µM fell in the range of 100 to 1000 and the fold induction at 10 µM is 1 to 10.

Turning to `Fc1cc(F)cc(-n2cnc(Nc3cc(C4CC4)nc(N4CC[C@@H](F)C4)c3)n2)c1` [Compound 105, 2-cyclopropyl-N-[1-(3,5-difluorophenyl)-1,2,4-triazol-3-yl]-6-[(3R)-3-fluoropyrrolidin-1-yl]pyridin-4-amine], the fold induction at 1 µM under setting [3] lay in the range of 100 to 1000. Also, under setting [4], the fold induction at 10 µM was in the range of 1 to 10.

With `Cc1cc(Nc2ncn(-c3ccccc3)n2)cc(N2CCN(C3CCOC3C)CC2)c1` (centres unmarked) [Compound 127, N-[3-methyl-5-[4-(2-methyltetrahydrofuran-3-yl)piperazin-1-yl]phenyl]-1-phenyl-1,2,4-triazol-3-amine], under setting [3], the fold induction at 1 µM is 1000 to 10000. Moreover, the fold induction at 10 µM under setting [4] fell in the range of 1 to 10.

Values taken from US10766869B2, “Triazoles for the treatment of demyelinating dieases” (Vertex Pharmaceuticals Incorporated, priority 2015, dated 2020).
